Reference: US8076449B2, “Therapeutic agents of colivelin for neurodegenerative diseases” (Tomohiro Chiba, priority 2004, dated 2011)
Ends that are not written are not given here.

Columns and labels:
[1] = test system: F11 cells transformed with M146L-PS1; details: as already reported; cited from earlier work
[2] = test system: CD-1 mice icv-administered with Aβ (25-35); assay: Y-maze spatial working memory impairment induced by Aβ (25-35), icv administration; assay type: in vivo, mouse; details: 1 nmol colivelin icv, 10 nmol Aβ (25-35) icv, 3 weeks after Aβ
Experimental: The icv administration of Aβ peptides has been reported to induce spatial working memory impairment. […] In this test, the in vivo neuroprotective effect of colivelin on Aβ toxicity was examined.
Male CD-1 mice at 3 months of age were icy-administered once every three weeks with 1 nmol colivelin together with 3 μl of saline or 3 μl of saline alone into the left lateral ventricles. After 1 hour from the first administration of colivelin, 5 μl of saline together with 10 nmol Aβ (25-35) or 5 μl of saline alone was administered to the right lateral ventricles. After 3 weeks from the Aβ peptide administration, each mouse was examined for spatial working memory in a Y-maze. The Y-maze was made of three gray plastic arms (40 cm long, 12 cm high, 3 cm wide at the bottom, and 10 cm wide at the top) connected to each other at angles of 120°. The mice were individually placed at the end of one arm of the Y-maze and allowed to freely explore the arms for 8 minutes. Items examined were (1) frequency of entry into each arm, (2) total arm entry times, (3) spontaneous alternation percentage, and (4) events. The spontaneous alternation percentage was defined as a ratio of the arm choices that differed from the previous two choices (“successful choices”) to total choices during the run (“total entry minus two”, because the first two choices could not be evaluated for success or failure during the run). […]

[3] = test system: ChAT(+) neurons in the ventral gray column of ALS model mice; assay: Immunohistochemical count of ChAT(+) neurons in spinal cord sections from dead ALS model mice; assay type: in vivo, mouse; details: spinal cord (L1-3) sections from dead mice
Experimental: Spinal cord (L1-3) sections from wild-type (n=3, FIG. 9a), control (saline-treated) (n=5, FIG. 9b), ADNF-treated (n=3, FIG. 9c), AGA-C8R-HNG17-treated (n=14, FIG. 9d), or colivelin-treated (n=12, FIG. 9e) mice were immunostained with an anti-ChAT antibody to count ChAT(+) neurons in the ventral gray columns of the spinal cords. The sections were prepared from dead mice. The average number of ChAT(+) neurons per section was compared among the mice (FIG. 9f). Statistical analysis was conducted by one-way ANOVA, followed by Fischer's PLSD test (**p<0.01); and
(§1) The immunohistochemical analysis of neuroprotective effect was conducted using ALS model mice (n=12, FIG. 9e) administered with colivelin, in comparison to wild type (n=3, FIG. 9a), control (saline-treated) (n=5, FIG. 9b), A DNF-treated (n=3, FIG. 9c), and AGA-C8R-HNG17-treated (n=14, FIG. 9d) mice. Spinal cord (L1-3) sections from dead mice in each group were immunostained with an anti-ChAT antibody to count ChAT(+) neurons in the ventral gray column (FIG. 9f).

[4] = test system: ChAT(+) neurons in the ventral gray column of ALS model mice; assay: Immunohistochemical count of ChAT(+) neurons in spinal cord sections from 120-day-old ALS model mice; assay type: in vivo, mouse; details: spinal cord (L1-3) sections from 120-day-old mice
Experimental: Spinal cord (L1-3) sections from wild-type (n=3, FIG. 10A), control (saline-treated) (n=5, FIG. 10B), ADNF-treated (n=3, FIG. 10C), or colivelin-treated (n=12, FIG. 10D) mice were immunostained with an anti-ChAT antibody to count ChAT(+) neurons in the ventral gray column. The sections were prepared from 120-day-old mice (see FIG. 8d). The average number of ChAT(+) neurons per section was compared among the mice (FIG. 10E). Statistical analysis was conducted by one-way ANOVA, followed by Fischer's PLSD test (**p<0.01; *p<0.05).
as §1, with “10D)” for “9e)”, “10A),” for “9a),”, “10B), and ADNF-treated” for “9b), A DNF-treated”, “10C)” for “9c), and AGA-C8R-HNG17-treated (n=14, FIG. 9d)”, “the” for “dead”, “9f). The sections were prepared from 120-day-old mice with motor function increased by colivelin and ADNF (see FIG. 8d)” for “9f).”

## SALLRSIPA [ADNF, reference compound]
[1]
  suppression of cell death caused by M146L-PS1: does not suppress

## SALLRSIPAPAGASRLLLLTGEIDLP [colivelin]
[2]
  spontaneous alternation percentage (SA %) in Y-maze: 70%
[3]
  number of ChAT(+) neurons per section in the spinal cord: approximately 19
[4]
  number of ChAT(+) neurons per section in the spinal cord: approximately 32
